# Test results reported in patent EP4678634A1, “ANDROGEN RECEPTOR MODULATORS AND USES THEREOF” (Haihe Biopharma Co., Ltd., priority 2023, dated 2024).
# Biological target: T1, Androgen receptor (AR) (Homo sapiens, UniProt P10275)
# T1 construct: expressed in transfected cells; host or cells: HEK293T (AR+ARE/Luc)
# T1 sequence (P10275 1-920): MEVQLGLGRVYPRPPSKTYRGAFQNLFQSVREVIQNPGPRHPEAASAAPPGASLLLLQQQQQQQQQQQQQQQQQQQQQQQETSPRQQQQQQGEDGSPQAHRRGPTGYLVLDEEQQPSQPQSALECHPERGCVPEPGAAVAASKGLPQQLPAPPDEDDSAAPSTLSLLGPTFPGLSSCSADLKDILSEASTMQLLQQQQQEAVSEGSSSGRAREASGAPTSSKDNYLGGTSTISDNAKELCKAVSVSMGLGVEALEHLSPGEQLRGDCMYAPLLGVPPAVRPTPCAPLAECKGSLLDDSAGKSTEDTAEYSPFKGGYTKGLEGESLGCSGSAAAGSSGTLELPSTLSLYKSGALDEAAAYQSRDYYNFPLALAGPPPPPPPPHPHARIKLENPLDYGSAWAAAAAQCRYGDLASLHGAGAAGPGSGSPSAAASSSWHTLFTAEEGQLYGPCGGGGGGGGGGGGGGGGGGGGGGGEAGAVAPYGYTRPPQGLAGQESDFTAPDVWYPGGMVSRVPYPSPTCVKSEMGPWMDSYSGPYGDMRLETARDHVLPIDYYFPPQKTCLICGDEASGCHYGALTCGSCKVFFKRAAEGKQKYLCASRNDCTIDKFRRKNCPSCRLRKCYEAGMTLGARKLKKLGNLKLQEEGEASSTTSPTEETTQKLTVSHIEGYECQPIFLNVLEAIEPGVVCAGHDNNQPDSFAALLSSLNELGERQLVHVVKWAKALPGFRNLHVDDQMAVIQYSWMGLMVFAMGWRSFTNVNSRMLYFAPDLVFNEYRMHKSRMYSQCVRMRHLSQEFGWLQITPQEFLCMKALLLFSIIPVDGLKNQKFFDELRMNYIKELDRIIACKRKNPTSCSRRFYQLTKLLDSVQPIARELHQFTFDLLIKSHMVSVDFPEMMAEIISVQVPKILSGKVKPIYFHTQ
# Test: Androgen receptor (AR) reporter gene assay (luciferase)
# Format: cell-based
# Conditions: AR+ARE/Luc HEK293T cells, stimulated with 11-KDHT, 24h incubation, Bright-Lite luminescence; read-out: HEK293 Luc IC50
# Method: Androgen receptor (AR) reporter gene assay
# Experimental reagents: 11-Ketodihydrotestosterone (11-KDHT) was purchased from MCE (cat.HY-135794); Enzalutamide (MDV3100) was purchased from Selleck (cat.S1250); Bright-Lite Luciferase Assay kit was purchased from Vazyme (cat.DD1204-01);
# • 1. dissolve the described compounds in 100% DMSO at a final concentration of 10 mM. 100 nL each of 400X compound to be tested and 400X 11-KDHT (40 nM) were added to a 384-well assay plate with Echo, followed by 20 µL of complete medium, and centrifuged at 1000 rpm for 1 min, and oscillated for 20-30 min at room temperature. • 2. 20 µL of AR+ARE/Luc HEK293T cells (10,000 cells/well) were inoculated into the assay plate containing the compounds and 11-KDHT, and centrifuged at 1000 rpm for 1 min. The assay plate was incubated in a 37 °C CO2 incubator for 24h. • 3. 40 µL of Bright-Lite assay reagent was transferred to each well of the assay plate, centrifuged at 1000 rpm for 1 min, and shaken for 2 min at room temperature protected from light. Luminescence values (RLU) were measured using Envision. Based on the results, the IC50 values of the compounds described were calculated. Table 1 HEK293-Luc% inhibition IC50 of representative compounds
row,SMILES,IC50
1,"Oc1ccc(C2CCCc3c2cc(Cl)c(OCCCl)c3Cl)cc1 (centres unmarked) [HANT-336B, 4-(5,7-dichloro-6-(2-chloroethoxy)-1,2,3,4-tetrahydronaphthalen-1-yl)phenol]",1 to 500 nM
2,N#Cc1cc2c(c(Cl)c1OCCCl)CCCC2Nc1cncc(F)c1 (centres unmarked) [HANT-254],1 to 500 nM
3,"N#Cc1c2c(cc(Cl)c1OCCCl)C(c1ccc(O)cc1)CCC2 (centres unmarked) [HANT-106, 3-chloro-2-(2-chloroethoxy)-5-(4-hydroxyphenyl)-5,6,7,8-tetrahydronaphthalene-1-carbonitrile]",1 to 500 nM
4,N#Cc1cc2c(c(Cl)c1OCCCl)CCCC2c1ccc(N)nc1 (centres unmarked) [HANT-203],1 to 500 nM
5,COc1ccc(NC2CCCc3c2cc(C#N)c(OCCCl)c3Cl)cn1 (centres unmarked) [HANT-241],1 to 500 nM
6,N#Cc1cc2c(c(Cl)c1OCCCl)CCCC2c1ccc2c(c1)C(=O)NC2 (centres unmarked) [HANT-948],500 to 1000 nM
7,"ClCCOc1c(Cl)cc2c(c1Cl)CCCC2c1ccc2[nH]nnc2c1 (centres unmarked) [HANT-113, 5-(5,7-dichloro-6-(2-chloroethoxy)-1,2,3,4-tetrahydronaphthalen-1-yl)-1H-benzo[d][1,2,3]triaz ole]",500 to 1000 nM
8,"Fc1cc2c(c(F)c1OCCCl)CCCC2c1ccc2[nH]ncc2c1 (centres unmarked) [HANT-103, 5-(6-(2-chloroethoxy)-5,7-difluoro-1,2,3,4-tetrahydronaphthalen-1-yl)-1H indazole]",500 to 1000 nM
9,N#Cc1cc2c(c(Cl)c1OCCCl)CCCC2Nc1cncnc1 (centres unmarked) [HANT-250],1 to 500 nM
10,N#Cc1cc2c(c(Cl)c1OCCCl)CCCC2Nc1cnc(N)nc1 (centres unmarked) [HANT-251],1 to 500 nM
11,"CNC(=O)Oc1ccc(C2CCCc3c2cc(C#N)c(OCCCl)c3Cl)cc1 (centres unmarked) [HANT-206, 4-(5-chloro-6-(2-chloroethoxy)-7-cyano-1,2,3,4-tetrahydronaphthalen-1-yl)phenyl methylcarbamate]",1 to 500 nM
12,O=c1[nH]c2ccc(C3CCCc4c3cc(Cl)c(OCCCl)c4Cl)cc2o1 (centres unmarked) [HANT-114],1 to 500 nM
13,"Oc1ccc2c(c1)CCN(C1CCCc3c1cc(Cl)c(OCCCl)c3Cl)C2 (centres unmarked) [HANT-124, 2-(5,7-dichloro-6-(2-chloroethoxy)-1,2,3,4-tetrahydronaphthalen-1-yl)-1,2,3,4-tetrahydroisoqui nolin-6-ol]",> 2000 nM
14,"Nc1n[nH]c2ccc(C3CCCc4c3cc(Cl)c(OCCCl)c4Cl)cc12 (centres unmarked) [HANT-133, 5-(5,7-dichloro-6-(2-chloroethoxy)-1,2,3,4-tetrahydronaphthalen-1-yl)-1H-indazol-3-amine]",1000 to 2000 nM

# More lines, now with the values ahead:
row,IC50,SMILES
1,1 to 500 nM,N#Cc1ccc(NC2CCCc3c2cc(C#N)c(OCCCl)c3Cl)cn1 (centres unmarked) [HANT-262]
2,500 to 1000 nM,Cn1ccc(NC2CCCc3c2cc(C#N)c(OCCCl)c3Cl)cc1=O (centres unmarked) [HANT-261]
3,1000 to 2000 nM,N#Cc1cc2c(c(Cl)c1OCCCl)CCCC2NC(=O)c1cccnc1 (centres unmarked) [HANT-213]
4,1 to 500 nM,"N#Cc1cc2c(c(Cl)c1OCCCl)CCCC2c1cnc(NCCO)nc1 (centres unmarked) [HANT-248, 4-chloro-3-(2-chloroethoxy)-8-(2-((2-hydroxyethyl)amino)pyrimidin-5-yl)-5,6,7,8-tetrahydrona phthalene-2-carbonitrile]"
5,1 to 500 nM,CNC(=O)c1ccc(NC2CCCc3c2cc(C#N)c(OCCCl)c3Cl)cn1 (centres unmarked) [HANT-263]
6,1 to 500 nM,N#Cc1cc2c(c(Cl)c1OCCCl)CCCC2Nc1cccc2[nH]ncc12 (centres unmarked) [HANT-173]
7,1 to 500 nM,N#Cc1cc2c(c(Cl)c1OCCCl)CCCC2NC(=O)c1ccccn1 (centres unmarked) [HANT-215]
8,1000 to 2000 nM,"Cn1cc2c(n1)CN(C1CCCc3c1cc(C#N)c(OCCCl)c3Cl)C2 (centres unmarked) [HANT-950, 4-Chloro-3-(2-chloroethoxy)-8-(2-methyl-2,6-dihydropyrrolo[3,4-c]pyrazol-5(4H)-yl)-5,6,7,8-t etrahydronaphthalene-2-carbonitrile]"
9,1 to 500 nM,N#Cc1cc2c(c(Cl)c1OCCCl)CCCC2NC(=O)c1cccc(Cl)c1 (centres unmarked) [HANT-233]
